In patent publication US20070014786A1, “Methods for treating taxol-induced gut disorder” (RINAT NEUROSCIENCE CORP., priority 2003, published 2007):
pKd: −log10 of the molar value.

Key:
[1] = tested on: Female Swiss-Webster mice; assay: Taxol-induced gut disorder mouse model: intestinal hypertrophy (weight and length of GI tract) and autopsy; type: in vivo
Method: Intestinal hypertrophy was assessed by measuring weight and length of the gastrointestinal (“GI”) tract as follows: animals were sacrificed, and the weight and length of the GI tract was assessed as follows: the entire GI tract was removed, emptied of any contents, and weighed. The GI tract was then separated into stomach, small intestine, and caecum plus large intestine and those parts were individually weighed.
Selected animals were sacrificed and subjected to autopsy. […] Ascites production was not observed in control animals.
Intestinal hypertrophy was assessed as described above. […] Ascites production was not observed in control animals.

[2] = tested on: Female Swiss-Webster mice; assay: Taxol-induced gut disorder mouse model: abdominal distension score; conditions: second experiment; taxol 300, 375 or 450 mg/m^2; scored weekly
Method: Female Swiss-Webster mice, eight weeks old were treated with vehicle alone (control), taxol alone, or agonist anti-trkC mouse monoclonal antibody 2256 (PCT WO 01/98361; Urfer et al. J. Biol. Chem. (1998) 273:5829-5840)) and taxol. Taxol was obtained from Calbiochem and prepared as a 20 mg/kg solution in Cremophor/ethanol (50:50 w/w), which was diluted with saline (1 part Cremophor/ethanol to four parts saline vol:vol), filtered through a 0.1 micron filter and administered intraperitoneally (“IP”) within 30 minutes of preparation. All treatment animals received one round of three taxol or control (vehicle) treatments every other day for three doses, i.e., day 1, 3 and 5 of the protocol. […] Taxol dose was determined on a mg/m^2 basis, using the formula that body surface area (in square cm) equals 10.5 times the weight in grams to the two-thirds power. […]
Taxol-induced gut disorder was assessed by measuring degree and quality of abdominal distension and intestinal hypertrophy after lifting the individual mouse by the tail. Degree and quality of taxol-induced abdominal distension was scored by a blinded observer using the following five point scale: • 0-no noticeable abdominal bulge • 1-slight bulge • 2-distinct bulge (may be full stomach) • 3-fat mouse • 4-definite lumpy abdomen • 5-swollen abdomen […]

[3] = target: T1, low affinity receptor (LNGFR), p75NTR or p75 (Homo sapiens, UniProt P08138); conditions: according to current knowledge (background); cited from earlier work
T1 sequence (P08138 29-427): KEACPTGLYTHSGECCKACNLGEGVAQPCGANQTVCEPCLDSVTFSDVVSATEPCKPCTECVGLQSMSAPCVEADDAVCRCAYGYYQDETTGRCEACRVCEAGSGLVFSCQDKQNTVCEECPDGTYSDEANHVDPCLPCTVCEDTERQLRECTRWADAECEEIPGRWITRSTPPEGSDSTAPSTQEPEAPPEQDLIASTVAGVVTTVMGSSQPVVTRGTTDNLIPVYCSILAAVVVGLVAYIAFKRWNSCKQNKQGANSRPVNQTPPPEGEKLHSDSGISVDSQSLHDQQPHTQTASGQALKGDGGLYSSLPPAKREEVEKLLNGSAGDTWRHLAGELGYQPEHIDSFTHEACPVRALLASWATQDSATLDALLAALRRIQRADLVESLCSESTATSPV

[4] = taxol 450 mg/m^2 (four weeks) or 375 mg/m^2 (six weeks)

Q: With `CC(=O)O[C@H]1C(=O)[C@@]2(C)[C@H]([C@H](OC(=O)c3ccccc3)[C@]3(O)C[C@H](OC(=O)[C@H](O)[C@@H](NC(=O)c4ccccc4)c4ccccc4)C(C)=C1C3(C)C)[C@]1(OC(C)=O)CO[C@@H]1C[C@@H]2O` [taxol, paclitaxel] as the compound, how does the “length of the GI tract (FIG. 8)” value [1, 4] read?
A: significant decrease

Q: What about the “raw weight of the caecum plus large intestine (FIG. 9)” value [1, 4] of the same compound?
A: significant increase

Q: And the “weight of the caecum plus large intestine (FIG. 6)” value ([1]; taxol 450 mg/m^2, four weeks)?
A: significant increase

Q: What about the “weight of the small intestine (FIG. 5)” value ([1]; taxol 450 mg/m^2, four weeks) of the same compound?
A: significant increase

Q: And the “weight of the GI tract from stomach through colon (FIG. 4)” value ([1]; taxol 450 mg/m^2, sacrificed at four weeks)?
A: significant increase

Q: What about the “intestinal obstruction(s) and/or stool softening or diarrhea” value ([1]; taxol-treated animals at autopsy) of the same compound?
A: exhibited intestinal obstruction(s) and/or stool softening or diarrhea

Q: And the “ascites in the peritoneum at autopsy” value ([1]; taxol-treated animals with abdominal distension, not observed in control animals)?
A: Production of ascites in the peritoneum was noted

Q: And the “gut distension (FIG. 2)” value [2]?
A: resulted in gut distension

Q: With nerve growth factor [NGF] as the compound, how does the pKd [3] read?
A: 8.70

Q: With neurotrophin-3 [NT-3] as the compound, how does the pKd [3] read?
A: 8.70
